From patent publication US20190328783A1, “A METHOD OF ENGINEERING PRODRUG-SPECIFIC HYPERSENSITIVE T-CELLS FOR IMMUNOTHERAPY BY GENE EXPRESSION” (CELLECTIS, priority 2016, published 2019)
Entries after “also recorded” stand apart in the source; their conditions may differ.

Columns and labels:
[1] = tested on: primary T cells transfected with CDA-BFP mRNA; test: Viability by flow cytometry of primary T cells transfected with CDA-BFP mRNA, in presence of prodrug; type: cell-based, human; conditions: increasing concentration (0 to 10 mM) for 48H; FIG. 1
Text: FIG. 1: Analysis by FACS for BFP expression in T cells render hypersensitive to the prodrugs 5fdC and 5HmdC after CDA expression. mRNA encoding a chimeric construction consisting of CDA fused to a BFP reporter. A) Viability rate expressed in percentage: comparison between mock (T cells not transfected by the CDA expression plasmid)—represented in the graph by unfilled bar- and transfected T cells by the CDA expression plasmid—represented in the graph by filled bar-, when all cells are submitted to an increasing dose of the 5fdC prodrug (from 0 to 10 mM); B) The same than for A) excepted that the cells are submitted to an increasing dose of the 5HmdC prodrug (from 0 to 10 mM). […]
To test the ability of CDA expression to endow primary T cell with hypersensitivity to hypomethylated agents 5hmdC and 5FdC, primary T cells were transfected with 40 μg of mRNA encoding a chimeric construction consisting of CDA fused to a BFP reported via a 2A self-cleaving peptide (SEQ ID NO. 9). One day post transfection, cells were recovered and analyzed by flow cytometry for BFP expression.
Transfected cells were incubated in the presence of increasing concentration of 5hmdC or 5FdC for 48H. At the end of incubation, cell viability was determined by flow cytometry. […]

[2] = tested on: dCK KO T cells expressing CDA-BFP; test: Viability by flow cytometry of dCK KO T cells transfected with CDA-BFP mRNA, in presence of prodrug; type: cell-based, human; conditions: increasing concentration (0 to 10 mM) for 48H; FIG. 2
Protocol: FIG. 2: Analysis by FACS for BFP expression in T cells render hypersensitive to the prodrugs 5fdC and 5HmdC by combining CDA expression and inactivation of dCK gene by KO. mRNA encoding a chimeric construction consisting of CDA fused to a BFP reporter, and a KO inactivation of dCK is made by using TALE-nuclease as explained later. […]
To further investigate the ability of T cells to be sensitive to 5fdC, IC50 for this prodrug was determined on dCK KO and WT T cells. […] At the end of 5fdC incubation, viability of T cells was determined by FACS analysis.
FIG. 2 presents the results to show whether primary T cells having undergone dCK KO can still endow resistance to purine nucleotide analogues as well as with hypersensitivity toward 5hmDC and SFDC. One day post transfection, dCK KO T cells were recovered and analyzed by flow cytometry for BFP expression. […] As described earlier, transfected cells were incubated in the presence of increasing concentration of 5hmdC or 5FdC for 48H and at the end of incubation, cell viability was determined by flow cytometry.

SMILES | sensitivity (cell viability) of CDA-transfected T cells with respect to wild type cells [1] | prodrug hypersensitivity (cell viability) of dCK KO T cells transfected with CDA-BFP [2]
Nc1nc(=O)n([C@H]2C[C@H](O)[C@@H](CO)O2)cc1C=O [5FdC, 5-formyl-2′-deoxycytidine] | increase of sensitivity | increase of specific prodrug hypersensitivity; also recorded: hypersensitive
Nc1nc(=O)n([C@H]2C[C@H](O)[C@@H](CO)O2)cc1CO [5hmdC, 5-hydroxymethyl-2′-deoxycytidine] | increase of sensitivity | increase of specific prodrug hypersensitivity; also recorded: hypersensitive
